In patent US20100261739A1, “Method of Treating Non-Small Cell Lung Cancer” (Myriad Pharmaceuticals, Inc., priority 2007, published 2010):
Counter-ions that a name gives are not always drawn.

Tested on: Subjects with Refractory Solid Tumors
Assay: Phase I clinical trial, open-label, dose-escalating, multiple-dose, weekly intravenous administration
Format: in vivo, human
Experimental: An open-label, dose-escalating, multiple-dose study to define the safety, tolerability and phamacokinetics of weekly intravenous administration of (4-Methoxy-phenyl)-methyl-(2-methyl-quinazolin-4-yl)-amine hydrochloride was performed. A dosing schedule (each 4 week cycle) was performed for (4-Methoxy-phenyl)-methyl-(2-methyl-quinazolin-4-yl)-amine hydrochloride weekly for 3 weeks with no infusion on the fourth week of each cycle. Subjects with refractory solid tumors were enrolled. During Cycle 1, subjects were hospitalized during each infusion of (4-Methoxy-phenyl)-methyl-(2-methyl-quinazolin-4-yl)-amine hydrochloride and remained for observation and safety evaluation for approximately 24 hours following the end of the infusion. All subject had continuous telemetry for 2 hours prior to infusion, for 1-2 hour infusion and for 3 hours after the end of the infusion. Any clinically significant electrocardiographic (ECG) wave form abnormality was recorded and prolongation of the monitoring period extended at the discretion of the principal investigator.
Electrocardiograms were obtrained prior to starting the infusion and within 30 minutes of the end of infusion for each infusino of the first cycle. Electrocardiograms on Day 1 were obtained in triplicate 5 minutes apart.
Neurocognitive assessments were made by administration of the Mini-Mental State Examination (MMSE), the Hopkins Verbal Learning and timed Grooved Pegboard tests before administration of the intravenous infusion and approximately 24 hours after the infusion at each weekly administration of the first cycle.
On days 1, 8, and 15 of each cycle, vital signs were obtained prior to the first dose, at 15, 30, and 60 minutes after the initiation of the infusion, and at 0.5, 1, 1.5, 2, and 4 hours after the end of the intravenous infusion. Vital signs at all time points beyond the start of the intravenous infusion included heart rate, blood pressure and respirations. Temperature was measured at the end of the infusion and 4 hours later.
Individual subjects were allowed to continue on repeated weekly ×3 administrations every 28 days with no dose increase provided there was no unacceptable toxicity or disease progression.
Tumor response was evaluated by response evaluation criteria in solid tumors
(RECIST) criteria. To prevent sever hypersensitivity reactions due to Cremophor® EL, subjects were premedicated with oral dexamethasone (20 mg) administered approximately 12 and 6 hours before the intravenous infusion with (4-Methoxy-phenyl)-methyl-(2-methyl-quinazolin-4-yl)-amine hydrochloride, diphenhydramine (50 mg) or its equivalent administered intravenously 30-60 minutes before (4-Methoxy-phenyl)-methyl-(2-methyl-quinazolin-4-yl)-amine hydrochloride, and cimetidine (300 mg) or ranitidine (50 mg) administered intravenously 30-60 minutes before (4-Methoxy-phenyl)-methyl-(2-methyl-quinazolin-4-yl)-amine hydrochloride.

[1] = at the administered doses (0.3-4.5 mg/m^2), weekly i.v.

For `COc1ccc(N(C)c2nc(C)nc3ccccc23)cc1` [(4-Methoxy-phenyl)-methyl-(2-methyl-quinazolin-4-yl)-amine hydrochloride], the cytotoxicity peripherally [1] was “no evidence from the results of the clinical trials of cytotoxicity peripherally”, the “effect on laboratory parameters (neutrophils, platelets, hemoglobin)” value [1] was “no apparent effect” and the safety and tolerability (human subjects at selected dosages, summary of Phase 1 studies) was “safe and well tolerated”. The “disease progression (tumor response by RECIST criteria)” value (one patient in Cohort 10 (3.3 mg/m^2) with NSCLC that had metastasized to the CNS, weekly i.v. for 3 weeks of each 4 week cycle) was “not shown to have disease progression”, the dose limiting toxicity (particularly in Cohorts 8 and 9 (3.9 and 4.5 mg/m^2)) was “vascular in nature, manifested by an acute coronary syndrome” and the intratumor bleeding (weekly i.v., human subjects) was “incidences of intratumor bleeding”. For the same compound, the “optimal dosage derived from the trials” value (weekly i.v., hydrochloride salt basis) was at most 3.3 mg/m^2 and the safety and tolerability (within dosage range 3.3 mg/m^2 or lower) was “safe and tolerated”.
